Where “and” joins values, the source holds several entries; their conditions need not be identical. Identical values can stand only once.
Tests used:
SNU-16 xenograft = assay: Subcutaneous xenograft model; assay type: in vivo, NOD/SCID mice
Experimental: NOD/SCID mice (6-week-old, weight 18–20 g, Beijing HJF bioscience) were used in this experiment and maintained in a specific-pathogen-free (SPF) condition facility. SNU-16 Cells were resuspended in PBS mixed with Matrigel (1:1) and adjust the density to 1×10^7 per mice (100 μL). The cell suspensions were inoculated subcutaneously on the right flank of the mice. When the mean tumor volume reached approximately 200 mm^3, the mice were divided into four groups (five mice each group): i. Vehicle group, ii. RK-019 15 mg/kg group, iii. RK-019 30 mg/kg group, and iv. RK-019 45 mg/kg group. RK-019 was dissolved in same formula as the in vivo PK study. RK-019 was administrated once per day by oral gavage for 21 days. Tumor volumes were measured three times per week. The tumor volume was measured by a caliper and calculated according to the following formula: Tumor volume=Major axis×Miner axis^2/2.
At the end of administration, the mice were executed euthanasia, then tumors, blood, and organs were extracted. The complete blood count (CBC), serum phosphorus analysis, and blood biochemical analysis were completed by West China Frontier Pharma Tech (Chengdu, China). The pathological section and IHC stanning was completed by Servicebio (Wuhan, China). The tumor growth inhibition (TGI) values were calculated with the following formula: TGI=(1−Tn−T0/Cn−C0)×100%.
Tn and T0 represent average tumor volume before treatment and that of day n after treatment in the treatment group. Cn and C0 represent average tumor volume before treatment and that of day n after treatment in the vehicle group. In this study, n is 21st day.

[1] = system: FGFR2 phosphorylation and downstream proteins in SNU-16 cells; assay: Western blot of FGFR signal proteins; assay type: cell-based
Experimental: (§1) The cells treated with RK-019 at indicated concentration for 24 h were harvested and lysed in 1× RIPA buffer (20e188, MilliporeSigma, Burlington, MA, United States), which contained protease inhibitor cocktail (B14001, Bimake, Houston, TX, United States) and phosphatase inhibitor cocktail (B15001, Bimake), for 30 min and equalized by concentration of the total protein before loading. Using sodium dodecyl sulphate - polyacrylamide gel electrophoresis (SDS-PAGE) to separate the protein sample and transfer to PVDF membranes (ISEQ00010, MilliporeSigma). The membranes were incubated with relevant primary antibody and corresponding HRP-labeled secondary antibody. Then, chemiluminescence was used to detect target bands. ImageJ software were used to make the gradation analysis.
(§2) In western blot, results analysis of relative phosphorylation quantification level, data were firstly calculated according to the following formular: Protein Relative phosphorylation data = Gp/Gup. Gp means the gradation level of target phosphorylation protein band and Gup means the gradation level of target total protein band. Then, the relative phosphorylation level can be calculated by the following formular: Protein Relative expression level = Pt/Pc ×100%. Pt means the relative phosphorylation data or target group and Pc means the relative phosphorylation data of control group.

[2] = system: FGFR2 phosphorylation and downstream proteins in KATO III cells; assay: Western blot of FGFR signal proteins; assay type: cell-based; settings: 24 h
Experimental: as §1, §2

ROCK-II(r) = assay: Kinase selectivity panel; assay type: biochemical, rat; settings: read-out: Inhibition(%) @ 1 µM RK-019
Experimental: (§3) Median-inhibitory concentration (IC50) and inhibition ratio of kinases by RK-019 was assessed by Eurofins Discovery Services (Dundee, United Kingdom) using the ATP-site competition binding assay in vitro. Firstly, gradient concentration of RK-019 against FGFRs, including FGFR1, FGFR2, FGFR3, and FGFR4, were tested. IC50 value was calculate by the GraphPad Prism software (v8.4.3, GraphPad Software, California, United States). Then, to measure the selectivity prolife of RK-019, a panel of 422 recombinant human kinases was screened at a concentration of 1 µM RK-019. Kinase MAP was drawn by webtools from Cell Signaling Technology, Inc. (www.cellsignal.com).

SNU-16 cells = assay: Cell viability assay (MTT); assay type: cell-based; settings: Homo sapiens; SNU-16, mean ± SD
Experimental: (§4) For suspension and mixed suspension adherent cells, the cells were seeded in 96-well plate with different cell density, 0.5×10^4 per well for 96 h treatment, 1×10^4 per well for 72 h treatment, 2×10^4 per well for 48 h treatment, and 5×10^4 per well for 24 h treatment. Different doses of RK-019 were treated as soon as the cell seeded in 96-well plates. For adherent cells, the cells were seeded in a 96-well plate with 3×10^3 per well and cultured overnight followed by administrated different doses of RK-019. After indicated time treatment, MTT solution at a final concentration of 0.5 mg/ml was added and incubated 2–4 h at 37°C. Formazan formed by the living cells was dissolved with DMSO and the absorbance was measured using a microplate spectrophotometer (MultiskanFC, ThermoFisher, Waltham, MA, United States) at 570 nm. IC50 value of RK-019 was calculated by the Graphpad Prism software.
(§5) All data were analyzed by the GraphPad Prism 8.4.3 (GraphPad Software, California, United States), and was shown as mean value ±SD or SEM, details will be illustrated in the figure legends. Dose-effect curve analysis (IC50 calculation) was performed by the Graphpad Prism software. […] The statistically significant p values were calculated by student’s t-test or two-way ANOVA and were shown in graphics which were labeled as follows: *p < 0.05; **p < 0.01; ***p < 0.001.

KATO III cells = assay: Cell viability assay (MTT); assay type: cell-based; settings: Homo sapiens, mean ± SD
Experimental: as §4, §5

FGFR3 = molecular target: T1, FGFR3 (Homo sapiens, UniProt P22607); assay: Kinase inhibition IC50 assay (Eurofins); assay type: biochemical
T1 construct: purchased Eurofins Discovery Services (Dundee, United Kingdom)
T1 sequence (P22607 23-806): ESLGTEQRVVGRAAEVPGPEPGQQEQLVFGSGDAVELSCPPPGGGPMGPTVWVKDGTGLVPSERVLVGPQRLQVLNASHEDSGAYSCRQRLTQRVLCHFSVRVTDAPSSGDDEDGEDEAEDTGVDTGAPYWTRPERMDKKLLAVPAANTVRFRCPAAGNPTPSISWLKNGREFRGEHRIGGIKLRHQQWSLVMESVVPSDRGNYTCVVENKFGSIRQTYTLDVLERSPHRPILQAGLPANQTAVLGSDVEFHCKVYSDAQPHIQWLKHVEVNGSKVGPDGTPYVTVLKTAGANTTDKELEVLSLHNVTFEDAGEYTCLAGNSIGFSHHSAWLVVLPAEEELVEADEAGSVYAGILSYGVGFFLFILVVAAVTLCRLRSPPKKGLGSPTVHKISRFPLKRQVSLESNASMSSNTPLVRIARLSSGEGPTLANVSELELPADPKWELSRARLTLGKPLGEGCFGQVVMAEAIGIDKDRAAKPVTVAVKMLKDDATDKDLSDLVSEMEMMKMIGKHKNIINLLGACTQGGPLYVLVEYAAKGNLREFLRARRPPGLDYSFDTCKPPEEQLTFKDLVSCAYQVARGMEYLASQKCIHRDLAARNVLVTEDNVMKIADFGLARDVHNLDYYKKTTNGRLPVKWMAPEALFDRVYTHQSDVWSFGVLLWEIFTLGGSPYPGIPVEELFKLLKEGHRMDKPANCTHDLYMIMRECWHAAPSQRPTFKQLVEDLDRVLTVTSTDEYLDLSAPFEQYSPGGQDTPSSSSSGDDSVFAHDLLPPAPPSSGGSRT
Experimental: as §3
(§6) All data were analyzed by the GraphPad Prism 8.4.3 (GraphPad Software, California, United States), and was shown as mean value ±SD or SEM, details will be illustrated in the figure legends. Dose-effect curve analysis (IC50 calculation) was performed by the Graphpad Prism software. First, concentration value was converted to log value, followed by non-linear regression analyze which is log(inhibitor) vs. normalized response—Variable slope, was performed to calculate the IC50 values. The statistically significant p values were calculated by student’s t-test or two-way ANOVA and were shown in graphics which were labeled as follows: *p < 0.05; **p < 0.01; ***p < 0.001.

FGFR4 = molecular target: T2, FGFR4 (Homo sapiens, UniProt P22455); assay: Kinase inhibition IC50 assay (Eurofins); assay type: biochemical
T2 construct: purchased Eurofins Discovery Services (Dundee, United Kingdom)
T2 sequence (P22455 22-802): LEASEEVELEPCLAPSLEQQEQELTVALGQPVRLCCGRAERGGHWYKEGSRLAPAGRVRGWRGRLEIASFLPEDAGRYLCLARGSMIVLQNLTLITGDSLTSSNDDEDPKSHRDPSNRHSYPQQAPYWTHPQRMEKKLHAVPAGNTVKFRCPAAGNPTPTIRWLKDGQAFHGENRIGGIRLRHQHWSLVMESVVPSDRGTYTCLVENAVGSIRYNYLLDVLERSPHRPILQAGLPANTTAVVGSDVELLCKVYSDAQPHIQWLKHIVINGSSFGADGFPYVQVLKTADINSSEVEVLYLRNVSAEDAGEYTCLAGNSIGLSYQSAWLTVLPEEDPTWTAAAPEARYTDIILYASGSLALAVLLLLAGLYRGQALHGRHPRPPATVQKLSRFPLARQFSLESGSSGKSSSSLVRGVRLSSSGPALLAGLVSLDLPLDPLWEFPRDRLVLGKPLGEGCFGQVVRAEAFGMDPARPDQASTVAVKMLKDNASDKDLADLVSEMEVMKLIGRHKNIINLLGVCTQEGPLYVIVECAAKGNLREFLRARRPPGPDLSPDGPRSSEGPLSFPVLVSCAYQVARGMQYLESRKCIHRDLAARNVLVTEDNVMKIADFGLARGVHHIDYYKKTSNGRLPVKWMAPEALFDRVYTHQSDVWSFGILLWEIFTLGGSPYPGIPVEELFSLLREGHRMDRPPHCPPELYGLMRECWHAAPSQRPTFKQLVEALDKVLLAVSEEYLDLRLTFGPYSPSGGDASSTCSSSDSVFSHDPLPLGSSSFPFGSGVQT
Experimental: as §3, §6

FGFR1 = molecular target: T3, FGFR1 (Homo sapiens, UniProt P11362); assay: Kinase inhibition IC50 assay (Eurofins); assay type: biochemical
T3 construct: purchased Eurofins Discovery Services (Dundee, United Kingdom)
T3 sequence (P11362 22-822): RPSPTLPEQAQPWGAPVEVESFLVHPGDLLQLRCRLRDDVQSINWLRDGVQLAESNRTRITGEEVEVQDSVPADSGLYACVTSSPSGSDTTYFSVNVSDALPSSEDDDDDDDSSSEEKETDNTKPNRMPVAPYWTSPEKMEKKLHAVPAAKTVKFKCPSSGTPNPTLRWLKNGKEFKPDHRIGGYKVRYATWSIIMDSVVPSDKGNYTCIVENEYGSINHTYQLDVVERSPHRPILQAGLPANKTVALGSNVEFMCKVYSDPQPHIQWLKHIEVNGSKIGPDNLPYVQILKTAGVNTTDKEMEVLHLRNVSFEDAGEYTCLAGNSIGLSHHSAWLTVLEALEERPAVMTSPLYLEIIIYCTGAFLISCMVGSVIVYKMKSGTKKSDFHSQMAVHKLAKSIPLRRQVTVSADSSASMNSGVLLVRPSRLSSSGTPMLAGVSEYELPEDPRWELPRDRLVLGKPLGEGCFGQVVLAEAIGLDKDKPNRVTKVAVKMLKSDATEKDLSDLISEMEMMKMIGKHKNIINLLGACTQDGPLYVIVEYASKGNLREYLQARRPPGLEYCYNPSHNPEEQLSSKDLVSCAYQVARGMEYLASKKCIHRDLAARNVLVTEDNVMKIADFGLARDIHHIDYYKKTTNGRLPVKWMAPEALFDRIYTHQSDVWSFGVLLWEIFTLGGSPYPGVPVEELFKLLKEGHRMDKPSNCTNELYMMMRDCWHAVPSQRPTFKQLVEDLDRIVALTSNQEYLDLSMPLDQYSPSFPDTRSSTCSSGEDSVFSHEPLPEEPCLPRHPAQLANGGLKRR
Experimental: as §3, §6

FGFR2 = molecular target: T4, FGFR2 (Homo sapiens, UniProt P21802); assay: Kinase inhibition IC50 assay (Eurofins); assay type: biochemical
T4 construct: purchased Eurofins Discovery Services (Dundee, United Kingdom)
T4 sequence (P21802 22-821): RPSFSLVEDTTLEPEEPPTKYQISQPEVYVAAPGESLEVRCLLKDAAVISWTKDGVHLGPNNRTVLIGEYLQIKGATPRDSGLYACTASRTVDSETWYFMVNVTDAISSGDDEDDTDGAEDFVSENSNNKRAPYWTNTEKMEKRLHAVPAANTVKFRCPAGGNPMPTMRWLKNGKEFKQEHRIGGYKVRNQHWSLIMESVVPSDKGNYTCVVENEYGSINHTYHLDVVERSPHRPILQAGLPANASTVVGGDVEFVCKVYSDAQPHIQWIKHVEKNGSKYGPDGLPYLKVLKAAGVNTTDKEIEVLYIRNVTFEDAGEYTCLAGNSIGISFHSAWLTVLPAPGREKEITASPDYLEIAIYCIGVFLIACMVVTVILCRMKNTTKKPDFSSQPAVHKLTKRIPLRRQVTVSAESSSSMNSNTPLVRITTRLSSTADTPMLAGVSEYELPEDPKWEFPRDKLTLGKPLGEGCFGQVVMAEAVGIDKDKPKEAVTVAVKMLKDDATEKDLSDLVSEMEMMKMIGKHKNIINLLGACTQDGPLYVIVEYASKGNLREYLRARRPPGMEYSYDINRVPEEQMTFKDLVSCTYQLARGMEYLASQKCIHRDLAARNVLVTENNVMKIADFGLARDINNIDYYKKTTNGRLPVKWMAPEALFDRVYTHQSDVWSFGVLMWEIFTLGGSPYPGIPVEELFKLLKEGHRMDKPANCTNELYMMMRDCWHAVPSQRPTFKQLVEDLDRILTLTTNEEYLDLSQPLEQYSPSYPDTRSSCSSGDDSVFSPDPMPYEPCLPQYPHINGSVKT
Experimental: as §3, §6

CK1(y) = assay: Kinase selectivity panel; assay type: biochemical, yeast; settings: read-out: Inhibition(%) @ 1 µM RK-019
Experimental: as §3

`COc1cc(OC)cc(N(CCN[C@H](C)CO)c2ccc3ncc(-c4cnn(C)c4)c(=O)n3c2)c1` [RK-019, (R)-7-((3,5-dimethoxyphenyl) (2-((1-hydroxypropan-2-yl)amino)ethyl)amino)-3-(1-methyl-1H-pyrazol-4-yl)-4H-pyrido [1,2-a]pyrimidin-4-one] showed a TGI (SNU-16 xenograft; 15 mg/kg oral once a day, 21 days) of 34.3%, a TGI (SNU-16 xenograft; 30 mg/kg oral once a day, 21 days) of 85.9% and a TGI (SNU-16 xenograft; 45 mg/kg oral once a day, 21 days) of 83.5%. The tumor weight (SNU-16 xenograft; RK-019-treated group vs vehicle group, 21 days) was “significant decrease”, the “number of cleaved-caspase 3-positive cells (IHC of tumor tissue)” value (SNU-16 xenograft; after 21 days treatment) was “increased significantly” and the “number of p-FGFR2-positive and Ki67-positive cells (IHC of tumor tissue)” value (SNU-16 xenograft; after 21 days treatment) was “decreased”. The “protein expression level of phosphorylated FGFR2 T653/T654” value ([1]; SNU-16, 0.1, 1, 5, 10, and 100 nM, 24 h) was “decreased”, the “AKT and Erk phosphorylation levels” value ([1]; SNU-16, 24 h) was “decreased” and the “FRS2 and PLCγ phosphorylation levels” value ([1]; SNU-16, 24 h) was “significantly decreased”. For the same compound, the “protein expression level of phosphorylated FGFR2 T653/T654” value ([2]; KATO III, 0.1, 1, 5, 10, and 100 nM) was “decreased”, the “AKT and Erk phosphorylation levels” value ([2]; KATO III) was “decreased” and the “FRS2 and PLCγ phosphorylation levels” value ([2]; KATO III) was “significantly decreased”. It also gave an activity (ROCK-II(r)) of 91%, an IC50 (SNU-16 cells) of 3.96 ± 4.4 nM and an IC50 (KATO III cells) of 5.45 ± 5.3 nM. For the same compound, the IC50 (FGFR3) was 26.3 nM, the IC50 (FGFR4) was 40.7 nM and the IC50 (FGFR1) was 8.9 nM and 9.1 nM. It also gave an IC50 (FGFR2) of 4.6 nM and an activity (CK1(y)) of 94%.

Source: paper PMC9532703, “A novel small molecule RK-019 inhibits FGFR2-amplification gastric cancer cell proliferation and induces apoptosis in vitro and in vivo” (Frontiers in Pharmacology, 2022)
